Values of other authors as cited in article PMC12138161, “Structure–activity analysis of imino‐pyrimidinone‐fused pyrrolidines aids the development of dual plasmepsin V and plasmepsin X inhibitors” (The Febs Journal, 2025).
pEC50, pIC50: −log10 of the molar value. Like-named read-outs stand apart in the source and are kept apart here.

What was measured:
PMV = settings: cited from earlier work
[1] = system: 3D7 strain of Plasmodium falciparum; settings: blood stage growth, read-out: Pf 3D7 EC50; cited from earlier work
PMX = settings: cited from earlier work
PMIX = settings: cited from earlier work

SMILES | pIC50 (PMV) | pIC50 (PMV; stated in text with reference to Fig. 1) | pEC50 [1] | pIC50 (PMX) | pIC50 (PMIX)
CC(C)C[C@H](NC(=O)[C@@H](NC(=O)[C@H](CCONC(=N)N)NC(=O)OCc1ccccc1)C(C)C)[C@@H](O)CC(=O)NCCc1ccccc1 [WEHI-842 (1)] | 7.72 | > 7.70 | 6.37 | 5.77 | < 4.30
CCC1(CC)CC(=O)N([C@@H]2CCOc3ccc(C(=O)N[C@H]4CC(C)(C)Oc5ccccc54)cc32)C(=N)N1 [WM382 (5)] | < 6.00 | – | 9.22 | 10.40 | 9.40
